System: MV-4-11 cells
Test: Gene expression microarray analysis (Affymetrix PrimeView) and GSEA
Format: cell-based, human
Parameters: RFU PODN (11730768_x_at) / Fold change /veh PODN (11730768_x_at) / RFU LINC00158 (11744669_a_at) / Fold change /veh LINC00158 (11744669_a_at) / RFU DUSP10 (11751237_a_at) / Fold change /veh DUSP10 (11751237_a_at) / RFU ID3 (11757404_x_at) / Fold change /veh ID3 (11757404_x_at) / RFU PLEKHG5 (11737974_s_at) / Fold change /veh PLEKHG5 (11737974_s_at) / RFU LRRC4B (11730491_at) / Fold change /veh LRRC4B (11730491_at) / RFU GIMAP4 (11747438_a_at) / Fold change /veh GIMAP4 (11747438_a_at) / RFU KRT8 (11758183_x_at) / Fold change /veh KRT8 (11758183_x_at) / RFU CNN1 (11734310_a_at) / Fold change /veh CNN1 (11734310_a_at) / RFU VPS37D (11726825_at) / Fold change /veh VPS37D (11726825_at) / RFU C10orf10 (11716522_x_at) / Fold change /veh C10orf10 (11716522_x_at) / RFU KIR2DL2 /// KIR2DL4 /// KIR2DL5A /// KIR2DL5B /// KIR2DS1 /// KIR2DS2 /// KIR2DS3 /// KIR2DS4 /// KIR3DL3 /// KIR3DL3 /// KIR3DS1 (11738374_at) / Fold change /veh KIR2DL2 /// KIR2DL4 /// KIR2DL5A /// KIR2DL5B /// KIR2DS1 /// KIR2DS2 /// KIR2DS3 /// KIR2DS4 /// KIR3DL3 /// KIR3DL3 /// KIR3DS1 (11738374_at) / RFU C1QL1 (11718748_at) / Fold change /veh C1QL1 (11718748_at) / RFU TMPRSS4 (11747572_a_at) / Fold change /veh TMPRSS4 (11747572_a_at) / RFU HAMP (11756126_x_at) / Fold change /veh HAMP (11756126_x_at) / RFU RNFT2 (11725882_a_at) / Fold change /veh RNFT2 (11725882_a_at) / RFU NR4A2 (11747474_a_at) / Fold change /veh NR4A2 (11747474_a_at) / RFU ABCC12 (11746883_a_at) / Fold change /veh ABCC12 (11746883_a_at) / RFU TMEM136 (11760407_x_at) / Fold change /veh TMEM136 (11760407_x_at) / RFU CLDN22 /// WWC2 (11732394_at) / Fold change /veh CLDN22 /// WWC2 (11732394_at) / RFU HLA-DPB1 (11760878_x_at) / Fold change /veh HLA-DPB1 (11760878_x_at) / RFU SPINT1 (11716480_a_at) / Fold change /veh SPINT1 (11716480_a_at) / RFU GAP43 (11754022_s_at) / Fold change /veh GAP43 (11754022_s_at) / RFU A4GNT (11735810_at) / Fold change /veh A4GNT (11735810_at) / RFU PRB3 (11715151_x_at) / Fold change /veh PRB3 (11715151_x_at) / RFU TUBB4B (11761932_at) / Fold change /veh TUBB4B (11761932_at) / RFU CAPN14 (11732068_a_at) / Fold change /veh CAPN14 (11732068_a_at) / RFU TMCC2 (11721928_a_at) / Fold change /veh TMCC2 (11721928_a_at) / RFU IRGQ (11745062_a_at) / Fold change /veh IRGQ (11745062_a_at) / RFU FAM174B (11720279_a_at) / Fold change /veh FAM174B (11720279_a_at) / RFU TMPRSS4 (11748680_a_at) / Fold change /veh TMPRSS4 (11748680_a_at) / RFU FAM212B (11763350_a_at) / Fold change /veh FAM212B (11763350_a_at) / RFU PLEKHG5 (11743358_a_at) / Fold change /veh PLEKHG5 (11743358_a_at) / RFU ZSCAN30 (11745921_a_at) / Fold change /veh ZSCAN30 (11745921_a_at) / RFU CMKLR1 (11741424_a_at) / Fold change /veh CMKLR1 (11741424_a_at) / RFU LOC101060620 /// MAPK8IP1 (11723275_at) / Fold change /veh LOC101060620 /// MAPK8IP1 (11723275_at) / RFU SPTSSB (11747773_x_at) / Fold change /veh SPTSSB (11747773_x_at) / RFU PRSS12 (11739890_at) / Fold change /veh PRSS12 (11739890_at) / RFU BIN1 (11741810_x_at) / Fold change /veh BIN1 (11741810_x_at) / RFU WNT11 (11732464_a_at) / Fold change /veh WNT11 (11732464_a_at) / RFU C10orf10 (11716521_a_at) / Fold change /veh C10orf10 (11716521_a_at) / RFU C5orf56 (11738089_at) / Fold change /veh C5orf56 (11738089_at) / RFU CYB561 (11721691_x_at) / Fold change /veh CYB561 (11721691_x_at) / RFU ANKRD19P (11752326_a_at) / Fold change /veh ANKRD19P (11752326_a_at) / RFU OR2T12 /// OR2T33 /// OR2T8 (11738714_s_at) / Fold change /veh OR2T12 /// OR2T33 /// OR2T8 (11738714_s_at) / RFU VCAN (11748164_a_at) / Fold change /veh VCAN (11748164_a_at) / RFU JSRP1 (11732532_at) / Fold change /veh JSRP1 (11732532_at) / RFU KRTAP10-11 (11738290_x_at) / Fold change /veh KRTAP10-11 (11738290_x_at) / RFU MYO3A (11730013_a_at) / Fold change /veh MYO3A (11730013_a_at) / RFU EBF3 (11725865_a_at) / Fold change /veh EBF3 (11725865_a_at) / RFU CAMK2N1 (11719241_x_at) / Fold change /veh CAMK2N1 (11719241_x_at) / RFU C5orf56 (11738088_a_at) / Fold change /veh C5orf56 (11738088_a_at) / RFU OLFML3 (11715873_a_at) / Fold change /veh OLFML3 (11715873_a_at) / RFU LOC100653217 /// NTM (11731650_a_at) / Fold change /veh LOC100653217 /// NTM (11731650_a_at) / RFU MAPK11 (11762145_a_at) / Fold change /veh MAPK11 (11762145_a_at) / RFU FIZ1 (11724087_x_at) / Fold change /veh FIZ1 (11724087_x_at) / RFU OASL (11726364_x_at) / Fold change /veh OASL (11726364_x_at) / RFU SOX15 (11748057_x_at) / Fold change /veh SOX15 (11748057_x_at) / RFU CD79A (11719716_a_at) / Fold change /veh CD79A (11719716_a_at) / RFU HIST1H1D (11736915_at) / Fold change /veh HIST1H1D (11736915_at) / RFU CASKIN2 (11723855_a_at) / Fold change /veh CASKIN2 (11723855_a_at) / RFU LOC730098 (11760151_x_at) / Fold change /veh LOC730098 (11760151_x_at) / RFU OR4N2 (11742367_at) / Fold change /veh OR4N2 (11742367_at) / RFU PRRT2 (11749266_a_at) / Fold change /veh PRRT2 (11749266_a_at) / RFU SNX32 (11753110_a_at) / Fold change /veh SNX32 (11753110_a_at) / RFU CDHR5 (11726645_a_at) / Fold change /veh CDHR5 (11726645_a_at) / RFU RCAN1 (11760418_a_at) / Fold change /veh RCAN1 (11760418_a_at) / RFU FAM167A (11723789_a_at) / Fold change /veh FAM167A (11723789_a_at) / RFU FAM26E (11764081_at) / Fold change /veh FAM26E (11764081_at) / RFU ISYNA1 (11749810_s_at) / Fold change /veh ISYNA1 (11749810_s_at) / RFU ACY1 (11761880_at) / Fold change /veh ACY1 (11761880_at) / RFU 11764098_at / Fold change /veh 11764098_at / RFU SAMD14 (11745864_x_at) / Fold change /veh SAMD14 (11745864_x_at) / RFU NPB (11741838_a_at) / Fold change /veh NPB (11741838_a_at) / RFU TMPRSS6 (11731388_a_at) / Fold change /veh TMPRSS6 (11731388_a_at) / RFU KRTAP10-2 (11738614_at) / Fold change /veh KRTAP10-2 (11738614_at) / RFU ARHGAP8 /// PRR5-ARHGAP8 (11727945_x_at) / Fold change /veh ARHGAP8 /// PRR5-ARHGAP8 (11727945_x_at) / RFU KRTAP5-7 /// NADSYN1 (11734609_at) / Fold change /veh KRTAP5-7 /// NADSYN1 (11734609_at) / RFU RASL12 (11751679_a_at) / Fold change /veh RASL12 (11751679_a_at) / RFU CDKN2B (11736163_a_at) / Fold change /veh CDKN2B (11736163_a_at) / RFU PRF1 (11729649_at) / Fold change /veh PRF1 (11729649_at) / RFU, ZNF638 /// ZNF638-IT1 / Fold change vs veh, ZNF638 /// ZNF638-IT1 / RFU, PANK3 / Fold change vs veh, PANK3 / RFU, SH3YL1 / Fold change vs veh, SH3YL1 / RFU, ZEB2 / Fold change vs veh, ZEB2 / RFU, NRIP1 / Fold change vs veh, NRIP1 / RFU, PTTG1IP / Fold change vs veh, PTTG1IP / RFU, CAPN2 / Fold change vs veh, CAPN2 / RFU, MED14 / Fold change vs veh, MED14 / RFU, SNORA58 / Fold change vs veh, SNORA58 / RFU, C1orf63 / Fold change vs veh, C1orf63 / RFU, LRRFIP1 / Fold change vs veh, LRRFIP1 / RFU, NDUFAF7 / Fold change vs veh, NDUFAF7 / RFU, SLC12A2 / Fold change vs veh, SLC12A2 / RFU, IBTK / Fold change vs veh, IBTK / RFU, ESF1 / Fold change vs veh, ESF1 / Fold change vs veh, TMEM50B / RFU, TAOK1 / Fold change vs veh, TAOK1 / RFU, ACBD3 / Fold change vs veh, ACBD3 / RFU, TMA16 / Fold change vs veh, TMA16 / RFU, RWDD3 / Fold change vs veh, RWDD3 / RFU, BCAT1 / Fold change vs veh, BCAT1 / RFU, EDEM3 / Fold change vs veh, EDEM3 / RFU, TMEM33 / Fold change vs veh, TMEM33 / RFU, WDR75 / Fold change vs veh, WDR75 / RFU, AHCTF1 / Fold change vs veh, AHCTF1 / RFU, TFRC / Fold change vs veh, TFRC / RFU, ZDHHC17 / Fold change vs veh, ZDHHC17 / RFU, NOM1 / Fold change vs veh, NOM1 / RFU, ARL8B / Fold change vs veh, ARL8B / RFU, ZBTB11 / Fold change vs veh, ZBTB11 / RFU, TAMM41 / Fold change vs veh, TAMM41 / RFU, KIAA1704 /// LOC100996395 / Fold change vs veh, KIAA1704 /// LOC100996395 / RFU, ING1 / Fold change vs veh, ING1 / RFU, TRMT61B / Fold change vs veh, TRMT61B / RFU, FUBP3 / Fold change vs veh, FUBP3 / RFU, TP53 / Fold change vs veh, TP53 / RFU, TNKS2 / Fold change vs veh, TNKS2 / RFU, ZFP14 / Fold change vs veh, ZFP14 / RFU, ACTR2 / Fold change vs veh, ACTR2 / RFU, PPP3R1 / Fold change vs veh, PPP3R1 / RFU, PIK3R1 / Fold change vs veh, PIK3R1 / RFU, HNRNPA1 / Fold change vs veh, HNRNPA1 / RFU, RNF170 / Fold change vs veh, RNF170 / RFU, ZNF28 / Fold change vs veh, ZNF28 / RFU, RNGTT / Fold change vs veh, RNGTT / RFU, OGT / Fold change vs veh, OGT / RFU, BRD1 / Fold change vs veh, BRD1 / RFU, MARS / Fold change vs veh, MARS / RFU, ZNF655 / Fold change vs veh, ZNF655 / RFU, FAHD1 / Fold change vs veh, FAHD1 / RFU, BDP1 / Fold change vs veh, BDP1 / RFU, LRRCC1 / Fold change vs veh, LRRCC1 / RFU, ARID1A / Fold change vs veh, ARID1A / RFU, ZNF146 / Fold change vs veh, ZNF146 / RFU, ZNF330 / Fold change vs veh, ZNF330 / RFU, GPN3 / Fold change vs veh, GPN3 / RFU, C9orf123 / Fold change vs veh, C9orf123 / RFU, N4BP2L2 / Fold change vs veh, N4BP2L2 / RFU, ARFIP1 / Fold change vs veh, ARFIP1 / RFU, FAM179B / Fold change vs veh, FAM179B / RFU, BCL10 / Fold change vs veh, BCL10 / RFU, UHRF1BP1L / Fold change vs veh, UHRF1BP1L / RFU, BET1 / Fold change vs veh, BET1 / RFU, CNOT2 / Fold change vs veh, CNOT2 / RFU, ZNF268 / Fold change vs veh, ZNF268 / Fold change vs veh, ZNF507 / RFU, DGCR2 / Fold change vs veh, DGCR2 / RFU, WDSUB1 / Fold change vs veh, WDSUB1 / Fold change vs veh, HSP90B1 /// MIR3652 / RFU, ADSS / Fold change vs veh, ADSS / RFU, GK / Fold change vs veh, GK / RFU, ZNF148 / Fold change vs veh, ZNF148 / RFU, TAF9 / Fold change vs veh, TAF9 / RFU, SLC1A5 / Fold change vs veh, SLC1A5 / RFU, SLMO2 / Fold change vs veh, SLMO2 / RFU, ABCC4 / Fold change vs veh, ABCC4 / RFU, LOC101060439 /// RAP1B / Fold change vs veh, LOC101060439 /// RAP1B / RFU, RFX7 / Fold change vs veh, RFX7 / RFU, GTPBP10 / Fold change vs veh, GTPBP10 / RFU, CNEP1R1 / Fold change vs veh, CNEP1R1 / RFU, BIVM-ERCC5 /// ERCC5 / Fold change vs veh, BIVM-ERCC5 /// ERCC5 / RFU, ILF3 / Fold change vs veh, ILF3 / RFU 11762660_at / Fold change /veh 11762660_at / RFU VCAN (11757783_s_at) / Fold change /veh VCAN (11757783_s_at) / RFU DDX43 (11728927_at) / Fold change /veh DDX43 (11728927_at) / RFU KRT8 (11758188_x_at) / Fold change /veh KRT8 (11758188_x_at) / RFU NKD1 (11759106_at) / Fold change /veh NKD1 (11759106_at) / RFU SRD5A1 (11742802_a_at) / Fold change /veh SRD5A1 (11742802_a_at) / RFU TPSAB1 /// TPSB2 (11721975_s_at) / Fold change /veh TPSAB1 /// TPSB2 (11721975_s_at) / RFU GSTM3 (11746129_a_at) / Fold change /veh GSTM3 (11746129_a_at) / RFU IL23R (11737362_x_at) / Fold change /veh IL23R (11737362_x_at) / RFU TMEM51 (11727254_a_at) / Fold change /veh TMEM51 (11727254_a_at) / RFU PIWIL2 (11732686_x_at) / Fold change /veh PIWIL2 (11732686_x_at) / RFU ORM1 (11744905_x_at) / Fold change /veh ORM1 (11744905_x_at) / RFU CCDC152 (11743942_at) / Fold change /veh CCDC152 (11743942_at) / RFU ECM1 (11717891_a_at) / Fold change /veh ECM1 (11717891_a_at) / RFU IL23R (11748794_a_at) / Fold change /veh IL23R (11748794_a_at) / RFU TNFAIP8L3 (11732012_x_at) / Fold change /veh TNFAIP8L3 (11732012_x_at) / RFU MBOAT4 (11741988_at) / Fold change /veh MBOAT4 (11741988_at) / RFU 11764193_at / Fold change /veh 11764193_at / RFU TMEM53 (11763286_at) / Fold change /veh TMEM53 (11763286_at) / RFU MAGEB2 (11727129_at) / Fold change /veh MAGEB2 (11727129_at) / RFU TMEM200A (11744735_a_at) / Fold change /veh TMEM200A (11744735_a_at) / RFU CCDC152 (11751479_a_at) / Fold change /veh CCDC152 (11751479_a_at) / RFU FAM211A (11726209_a_at) / Fold change /veh FAM211A (11726209_a_at) / RFU RGS16 (11746705_a_at) / Fold change /veh RGS16 (11746705_a_at) / RFU VCAN (11755009_s_at) / Fold change /veh VCAN (11755009_s_at) / RFU RHOB (11743442_s_at) / Fold change /veh RHOB (11743442_s_at) / RFU RGS16 (11720943_a_at) / Fold change /veh RGS16 (11720943_a_at) / RFU RGS16 (11720944_at) / Fold change /veh RGS16 (11720944_at) / RFU, VPS4B / Fold change vs veh, VPS4B / RFU, CREB1 / Fold change vs veh, CREB1 / RFU, DNAJC13 / Fold change vs veh, DNAJC13 / RFU, GNAQ / Fold change vs veh, GNAQ / RFU, CDK5R1 / Fold change vs veh, CDK5R1 / RFU, ZRANB3 / Fold change vs veh, ZRANB3 / RFU, CUL4A / Fold change vs veh, CUL4A / RFU, CCNY / Fold change vs veh, CCNY / RFU, UFL1 / Fold change vs veh, UFL1 / RFU, COG3 / Fold change vs veh, COG3 / RFU, DIAPH2 / Fold change vs veh, DIAPH2 / RFU, SKA2 / Fold change vs veh, SKA2 / RFU, AFF3 / Fold change vs veh, AFF3 / RFU, LMF1 / Fold change vs veh, LMF1 / RFU, IPO11 / Fold change vs veh, IPO11 / RFU, DFFB / Fold change vs veh, DFFB / RFU, FOXP1 / Fold change vs veh, FOXP1 / RFU, CARD8 / Fold change vs veh, CARD8 / RFU, STRN3 / Fold change vs veh, STRN3 / RFU, ADK / Fold change vs veh, ADK / RFU, RASSF2 / Fold change vs veh, RASSF2 / RFU, WIPF1 / Fold change vs veh, WIPF1 / RFU, LARP1B / Fold change vs veh, LARP1B / RFU, RASA1 / Fold change vs veh, RASA1 / RFU, RB1 / Fold change vs veh, RB1 / RFU, PPFIA1 / Fold change vs veh, PPFIA1 / RFU, MAT2A / Fold change vs veh, MAT2A / RFU, CCT5 / Fold change vs veh, CCT5 / RFU, WDR92 / Fold change vs veh, WDR92 / RFU, CUX1 / Fold change vs veh, CUX1 / RFU, TTC7A / Fold change vs veh, TTC7A / RFU, TMEM135 / Fold change vs veh, TMEM135 / RFU, DEPTOR / Fold change vs veh, DEPTOR / RFU, CPM / Fold change vs veh, CPM / RFU, DNAJB6 / Fold change vs veh, DNAJB6 / RFU, CACNA2D3 / Fold change vs veh, CACNA2D3 / RFU, DTX4 / Fold change vs veh, DTX4 / RFU, TFCP2 / Fold change vs veh, TFCP2 / RFU, GMCL1 /// GMCL1P1 / Fold change vs veh, GMCL1 /// GMCL1P1 / RFU, AEBP2 / Fold change vs veh, AEBP2 / RFU, SNHG1 /// SNORD22 /// SNORD25 /// SNORD26 /// SNORD27 /// SNORD28 /// SNORD29 /// SNORD31 / Fold change vs veh, SNHG1 /// SNORD22 /// SNORD25 /// SNORD26 /// SNORD27 /// SNORD28 /// SNORD29 /// SNORD31 / Fold change (Aza/veh), C12orf56 (ProbeSet 11735607_a_at) / Fold change (ACY-1035/veh), C12orf56 (ProbeSet 11735607_a_at) / Fold change (Aza/veh), FGFR1OP (ProbeSet 11751329_s_at) / Fold change (ACY-1035/veh), FGFR1OP (ProbeSet 11751329_s_at) / Fold change (Aza/veh), VPS36 (ProbeSet 11739960_a_at) / Fold change (ACY-1035/veh), VPS36 (ProbeSet 11739960_a_at) / RFU SYPL1 (11715823_x_at) / Fold change /veh SYPL1 (11715823_x_at) / RFU IGFBP7 (11715501_s_at) / Fold change /veh IGFBP7 (11715501_s_at) / RFU REEP3 (11722064_at) / Fold change /veh REEP3 (11722064_at) / RFU IGLL1 (11728026_x_at) / Fold change /veh IGLL1 (11728026_x_at): dose or concentration left out as unconfirmed
Settings: MV-4-11 cells, 48 hours

Nc1ncn([C@@H]2O[C@H](CO)[C@@H](O)[C@H]2O)c(=O)n1 [azacitidine]
RFU C5orf56 (11738089_at): 11.14 RFU
